Like-named read-outs stand apart in the source and are kept apart here.
Experiments:
sst (non-selective) = assay: ExpresSProfile: somatostatin receptor, agonist radioligand; format: binding; settings: Test Concentration 1.0E−05 M
MT1 (ML1A) (h) = MT1 (ML1A) (h) (Homo sapiens (Human), UniProt P48039); assay: ExpresSProfile: melatonin receptor 1, agonist radioligand; format: binding; settings: Test Concentration 1.0E−05 M
[1] = Plasma stability assay, human plasma; format: in vitro ADME
Procedure: (§1) The plasma stability assay was performed to measure the degradation of compounds of the present invention in plasma. This is an important characteristic of a compound as compounds, with the exception of pro-drugs, which rapidly degrade in plasma generally show poor in vivo efficacy.
(§2) The plasma was spiked with a 10 mM analyte solution in dimethyl sulfoxide to a final concentration of 10 μM, vortexed, and aliquotted to 50 μl samples. Two aliquots were stored at −20° C. until further treatment. Another two aliquots were incubated using an Eppendorf Thermomixer at 37° C. for 1, 4, and 24 hours. Sample clean-up was performed using a protein precipitation plate (Phenomenex Strata Impact, 64722-1-324-1) and using acetonitrile as precipitation agent. […] An aliquot of 10 μl was diluted with 90 μl 0.1% aqueous trifluoroacetic acid solution. The determination of the analyte in the clean sample solutions was performed on a Thermo TSQ Quantum Ultra triple quadrupole mass spectrometer equipped with a thermo Surveyor HPLC. The chromatographic separation was carried out on a Phenomenex Kinetex XB-C18 HPLC column (50×2 mm, […] particle size) with gradient elution using a mixture of 0.01% trifluoroacetic acid and 0.05% formic acid in water as eluent A and methanol as eluent B (20% B to 100% in 8 min, 400 μl/min, 40° C.). For mass spectrometric detection the selected reaction monitoring (SRM) was used.
(§3) Quantitation was performed by external matrix calibration using an internal standard.

GAL2 (h) = GAL2 (h) (Homo sapiens (Human), UniProt O43603); assay: ExpresSProfile: galanin receptor 2, agonist radioligand; format: binding; settings: Test Concentration 1.0E−05 M
M1 (h) = M1 (h) (Homo sapiens (Human), UniProt P11229); assay: ExpresSProfile: muscarinic receptor 1, antagonist radioligand; format: binding; settings: Test Concentration 1.0E−05 M
NK2 (h) = NK2 (h) (Homo sapiens (Human), UniProt P21452); assay: ExpresSProfile: neurokinin receptor 2, agonist radioligand; format: binding; settings: Test Concentration 1.0E−05 M
5-HT7 (h) = 5-HT7 (h) (Homo sapiens (Human), UniProt P34969); assay: ExpresSProfile: 5-hydroxytryptamine receptor 7, agonist radioligand; format: binding; settings: Test Concentration 1.0E−05 M
dopamine transporter (h) = dopamine transporter (h) (Homo sapiens (Human), UniProt Q01959); assay: ExpresSProfile: dopamine transporter, antagonist radioligand; format: binding; settings: Test Concentration 1.0E−05 M
NTR1 = NTR1 (Homo sapiens (Human), UniProt P30989); assay: Radioligand binding assay NTR1 (example part II); settings: 0.05 nM 125I-(Tyr3-neurotensin), 60 min at 4° C.; read-out: IC50 [nM] RLB
Method in brief: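 Membranes from CHO cells recombinantly expressing human NTR1 incubated with 0.05 nM 125I-(Tyr3-neurotensin) and serially diluted test compounds. Bound radioligand quantified by scintillation counting; displacement expressed as IC50.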

[2] = Plasma stability assay, mouse plasma; format: in vitro ADME
Procedure: as §1, §2, §3

CB1 (h) = CB1 (h) (Homo sapiens (Human), UniProt P21554); assay: ExpresSProfile: cannabinoid receptor 1, agonist radioligand; format: binding; settings: Test Concentration 1.0E−05 M
A3 (h) = A3 (h) (Homo sapiens (Human), UniProt P0DMS8); assay: ExpresSProfile: adenosine receptor 3, agonist radioligand; format: binding; settings: Test Concentration 1.0E−05 M
Y1 (h) = Y1 (h) (Homo sapiens (Human), UniProt P25929); assay: ExpresSProfile: neuropeptide Y receptor 1, agonist radioligand; format: binding; settings: Test Concentration 1.0E−05 M
5-HT6 (h) = 5-HT6 (h) (Homo sapiens (Human), UniProt P50406); assay: ExpresSProfile: 5-hydroxytryptamine receptor 6, agonist radioligand; format: binding; settings: Test Concentration 1.0E−05 M
[3] = read-out: % Inhibition of Control Specific Binding
[4] = read-out: % of Control Specific Binding 1st
[5] = read-out: % of Control Specific Binding 2nd
[6] = read-out: % of Control Specific Binding Mean

Chain of MT1 (ML1A) (h) (P48039 whole entry): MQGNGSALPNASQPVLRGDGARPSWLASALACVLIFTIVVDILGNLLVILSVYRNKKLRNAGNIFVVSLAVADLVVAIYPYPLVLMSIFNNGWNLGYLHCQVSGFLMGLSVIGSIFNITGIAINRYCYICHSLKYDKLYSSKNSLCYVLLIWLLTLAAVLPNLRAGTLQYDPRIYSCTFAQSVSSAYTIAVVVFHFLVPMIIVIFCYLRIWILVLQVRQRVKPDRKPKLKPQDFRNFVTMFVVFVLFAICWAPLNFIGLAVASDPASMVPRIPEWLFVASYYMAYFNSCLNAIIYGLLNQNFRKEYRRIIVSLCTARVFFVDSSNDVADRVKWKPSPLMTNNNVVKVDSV
Chain of 5-HT6 (h) (P50406 whole entry): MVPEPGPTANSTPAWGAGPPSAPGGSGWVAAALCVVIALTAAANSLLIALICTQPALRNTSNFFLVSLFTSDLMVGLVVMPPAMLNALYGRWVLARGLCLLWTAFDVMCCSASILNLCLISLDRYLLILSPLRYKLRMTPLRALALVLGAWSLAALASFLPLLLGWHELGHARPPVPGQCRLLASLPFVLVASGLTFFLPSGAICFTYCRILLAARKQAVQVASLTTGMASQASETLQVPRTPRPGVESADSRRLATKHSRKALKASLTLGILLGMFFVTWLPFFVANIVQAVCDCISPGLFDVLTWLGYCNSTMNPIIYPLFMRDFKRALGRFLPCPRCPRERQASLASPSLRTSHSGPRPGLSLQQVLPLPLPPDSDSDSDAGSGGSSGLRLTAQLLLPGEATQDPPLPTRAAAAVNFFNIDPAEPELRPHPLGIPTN
Chain of CB1 (h) (P21554 whole entry): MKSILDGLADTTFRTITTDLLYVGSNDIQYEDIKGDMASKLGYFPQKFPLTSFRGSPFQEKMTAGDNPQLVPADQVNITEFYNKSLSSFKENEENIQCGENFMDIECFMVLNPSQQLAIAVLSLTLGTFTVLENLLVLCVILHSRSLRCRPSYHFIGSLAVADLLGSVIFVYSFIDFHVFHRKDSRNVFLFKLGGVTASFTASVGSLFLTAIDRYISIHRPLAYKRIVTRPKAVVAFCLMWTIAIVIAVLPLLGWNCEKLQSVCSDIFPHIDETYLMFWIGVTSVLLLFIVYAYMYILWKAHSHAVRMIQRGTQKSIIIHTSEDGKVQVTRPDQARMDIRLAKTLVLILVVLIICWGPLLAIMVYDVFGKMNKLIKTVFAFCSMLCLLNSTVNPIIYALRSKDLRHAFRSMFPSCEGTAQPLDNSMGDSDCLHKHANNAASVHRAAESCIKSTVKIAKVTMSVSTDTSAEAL
Chain of NK2 (h) (P21452 whole entry): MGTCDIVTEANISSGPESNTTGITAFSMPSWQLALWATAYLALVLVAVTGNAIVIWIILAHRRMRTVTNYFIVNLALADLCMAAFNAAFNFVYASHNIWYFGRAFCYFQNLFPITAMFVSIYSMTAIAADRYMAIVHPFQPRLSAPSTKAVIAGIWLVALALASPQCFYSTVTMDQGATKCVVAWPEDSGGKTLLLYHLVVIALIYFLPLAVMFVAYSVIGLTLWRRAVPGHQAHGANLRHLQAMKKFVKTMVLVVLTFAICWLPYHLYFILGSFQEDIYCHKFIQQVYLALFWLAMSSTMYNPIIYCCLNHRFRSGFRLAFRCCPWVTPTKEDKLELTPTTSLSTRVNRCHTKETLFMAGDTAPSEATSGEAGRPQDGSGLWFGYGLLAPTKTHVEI
Chain of dopamine transporter (h) (Q01959 whole entry): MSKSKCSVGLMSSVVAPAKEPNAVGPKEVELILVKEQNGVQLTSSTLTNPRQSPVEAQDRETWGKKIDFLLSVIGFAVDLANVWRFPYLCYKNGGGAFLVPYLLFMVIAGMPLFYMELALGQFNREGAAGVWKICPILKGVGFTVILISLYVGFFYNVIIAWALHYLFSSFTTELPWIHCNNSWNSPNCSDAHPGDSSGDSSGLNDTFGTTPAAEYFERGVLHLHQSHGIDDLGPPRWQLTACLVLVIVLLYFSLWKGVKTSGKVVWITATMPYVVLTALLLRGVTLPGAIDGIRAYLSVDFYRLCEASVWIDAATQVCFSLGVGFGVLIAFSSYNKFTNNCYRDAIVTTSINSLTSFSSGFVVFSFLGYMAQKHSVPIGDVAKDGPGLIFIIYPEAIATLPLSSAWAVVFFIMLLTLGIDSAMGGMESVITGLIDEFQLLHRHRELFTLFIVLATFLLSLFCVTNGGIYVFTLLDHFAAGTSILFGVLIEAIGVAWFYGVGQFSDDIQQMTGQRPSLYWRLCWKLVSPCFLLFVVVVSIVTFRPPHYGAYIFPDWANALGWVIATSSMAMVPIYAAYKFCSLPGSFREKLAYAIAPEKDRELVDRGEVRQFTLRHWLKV
Chain of Y1 (h) (P25929 whole entry): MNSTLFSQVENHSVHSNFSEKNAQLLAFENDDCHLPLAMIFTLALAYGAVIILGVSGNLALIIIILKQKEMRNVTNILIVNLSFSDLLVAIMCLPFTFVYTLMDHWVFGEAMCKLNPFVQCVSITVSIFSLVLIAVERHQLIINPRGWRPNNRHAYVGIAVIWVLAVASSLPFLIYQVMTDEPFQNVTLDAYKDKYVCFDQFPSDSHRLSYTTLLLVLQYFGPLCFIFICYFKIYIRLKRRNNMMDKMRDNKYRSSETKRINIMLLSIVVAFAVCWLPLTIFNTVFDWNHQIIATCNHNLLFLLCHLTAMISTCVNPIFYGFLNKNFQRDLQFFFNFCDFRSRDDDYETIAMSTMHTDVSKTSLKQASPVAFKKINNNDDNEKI
Chain of GAL2 (h) (O43603 whole entry): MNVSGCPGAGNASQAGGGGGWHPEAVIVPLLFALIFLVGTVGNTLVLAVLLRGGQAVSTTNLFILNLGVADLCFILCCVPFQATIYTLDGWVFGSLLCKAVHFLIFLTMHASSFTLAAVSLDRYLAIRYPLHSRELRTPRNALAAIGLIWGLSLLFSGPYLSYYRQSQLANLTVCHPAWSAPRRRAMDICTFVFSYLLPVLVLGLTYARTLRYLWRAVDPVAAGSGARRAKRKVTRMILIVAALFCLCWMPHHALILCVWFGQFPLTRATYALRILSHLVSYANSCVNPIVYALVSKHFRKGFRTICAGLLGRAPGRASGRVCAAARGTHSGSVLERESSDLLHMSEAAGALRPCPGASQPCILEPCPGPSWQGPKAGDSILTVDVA
Chain of A3 (h) (P0DMS8 whole entry): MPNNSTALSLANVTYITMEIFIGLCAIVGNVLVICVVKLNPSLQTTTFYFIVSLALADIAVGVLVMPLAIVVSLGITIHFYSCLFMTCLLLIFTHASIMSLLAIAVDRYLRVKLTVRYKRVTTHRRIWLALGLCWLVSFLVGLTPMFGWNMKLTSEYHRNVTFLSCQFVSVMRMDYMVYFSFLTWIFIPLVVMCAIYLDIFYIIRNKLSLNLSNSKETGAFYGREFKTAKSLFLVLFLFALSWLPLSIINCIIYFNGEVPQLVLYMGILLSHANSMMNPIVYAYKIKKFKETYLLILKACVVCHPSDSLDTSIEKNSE
Chain of M1 (h) (P11229 whole entry): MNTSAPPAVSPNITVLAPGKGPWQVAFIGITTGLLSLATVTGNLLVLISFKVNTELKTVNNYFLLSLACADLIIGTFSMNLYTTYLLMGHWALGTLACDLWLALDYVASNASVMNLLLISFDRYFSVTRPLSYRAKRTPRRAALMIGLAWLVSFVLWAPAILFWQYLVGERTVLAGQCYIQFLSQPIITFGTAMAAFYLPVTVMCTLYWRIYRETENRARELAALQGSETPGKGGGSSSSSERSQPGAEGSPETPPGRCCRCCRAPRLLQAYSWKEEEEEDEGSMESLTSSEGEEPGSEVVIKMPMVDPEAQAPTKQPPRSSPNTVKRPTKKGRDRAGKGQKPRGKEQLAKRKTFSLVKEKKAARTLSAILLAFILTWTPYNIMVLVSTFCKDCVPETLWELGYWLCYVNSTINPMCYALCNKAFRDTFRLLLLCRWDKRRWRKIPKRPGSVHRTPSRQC
Chain of 5-HT7 (h) (P34969 whole entry): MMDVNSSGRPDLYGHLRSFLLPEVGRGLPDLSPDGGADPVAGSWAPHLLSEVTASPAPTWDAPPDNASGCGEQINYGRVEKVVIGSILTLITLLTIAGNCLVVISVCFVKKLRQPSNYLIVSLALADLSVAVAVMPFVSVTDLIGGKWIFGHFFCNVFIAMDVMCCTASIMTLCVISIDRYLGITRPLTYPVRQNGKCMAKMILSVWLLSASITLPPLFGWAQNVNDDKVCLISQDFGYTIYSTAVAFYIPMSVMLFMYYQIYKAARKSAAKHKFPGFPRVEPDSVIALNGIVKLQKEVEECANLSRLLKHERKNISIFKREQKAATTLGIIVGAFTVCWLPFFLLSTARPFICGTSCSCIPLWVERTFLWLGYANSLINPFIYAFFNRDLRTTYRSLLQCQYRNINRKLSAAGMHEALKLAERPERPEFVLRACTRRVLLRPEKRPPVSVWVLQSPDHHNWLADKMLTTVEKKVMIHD
Chain of NTR1 (P30989 whole entry): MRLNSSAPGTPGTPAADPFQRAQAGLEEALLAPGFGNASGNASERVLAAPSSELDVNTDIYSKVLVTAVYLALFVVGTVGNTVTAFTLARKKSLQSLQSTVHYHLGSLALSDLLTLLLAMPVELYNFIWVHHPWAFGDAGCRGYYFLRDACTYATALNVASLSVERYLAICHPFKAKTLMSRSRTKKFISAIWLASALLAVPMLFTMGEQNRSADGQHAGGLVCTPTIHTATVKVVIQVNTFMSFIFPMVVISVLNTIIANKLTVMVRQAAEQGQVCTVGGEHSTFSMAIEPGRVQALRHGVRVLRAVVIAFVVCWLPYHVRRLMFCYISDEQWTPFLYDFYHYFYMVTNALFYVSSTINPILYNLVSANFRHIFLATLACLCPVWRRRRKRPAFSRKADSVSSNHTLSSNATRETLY

Q: Which “% Inhibition of Control Specific Binding” value (sst (non-selective)) does the source give for `COc1cccc(OC)c1-c1cc(C(=O)NC2(C(=O)O)C3CC4CC(C3)CC2C4)nn1-c1ccc(C(=O)N(C)CCCN(C)CCCN(C)C(=O)CN2CCN(CC(=O)O)CCN(CC(=O)O)CCN(CC(=O)O)CC2)cc1C(C)C` (centres unmarked) [(IIIa), 2-{[1-{4-[(3-{[3-(DOTA-methyl-amino)-propyl]-methyl-amino}-propyl)-methyl-carbamoyl]-2-isopropyl-phenyl}-5-(2,6-dimethoxy-phenyl)-1H-pyrazole-3-carbonyl]-amino}-adamantane-2-carboxylic acid] here?
A: −11%

Q: What about the “% of Control Specific Binding 1st” value (sst (non-selective)) of the same molecule?
A: 111.6%

Q: And the “% of Control Specific Binding 2nd” value (sst (non-selective))?
A: 110.0%

Q: What about the “% of Control Specific Binding Mean” value (sst (non-selective)) of the same molecule?
A: 110.8%

Q: And the inhibition at 10 µM (MT1 (ML1A) (h); [3])?
A: 1%

Q: And the remaining activity at 10 µM (MT1 (ML1A) (h); [4])?
A: 103%

Q: What about the remaining activity at 10 µM (MT1 (ML1A) (h); [5]) of the same molecule?
A: 95.9%

Q: And the remaining activity at 10 µM (MT1 (ML1A) (h); [6])?
A: 99.3%

Q: What about the “stability in human plasma” value [1] of the same molecule?
A: highly stable

Q: What about the “% remaining after 24 h incubation, Human plasma” value ([1]; 10 μM, 37° C., 24 h) of the same molecule?
A: >90%

Q: What about the inhibition at 10 µM (GAL2 (h); [3]) of the same molecule?
A: 1%

Q: And the remaining activity at 10 µM (GAL2 (h); [4])?
A: 96.5%

Q: What about the remaining activity at 10 µM (GAL2 (h); [5]) of the same molecule?
A: 102%

Q: And the remaining activity at 10 µM (GAL2 (h); [6])?
A: 99.3%

Q: What about the inhibition at 10 µM (M1 (h); [3]) of the same molecule?
A: -25%

Q: And the remaining activity at 10 µM (M1 (h); [4])?
A: 111%

Q: And the remaining activity at 10 µM (M1 (h); [5])?
A: 138%

Q: And the remaining activity at 10 µM (M1 (h); [6])?
A: 125%

Q: And the “% Inhibition of Control Specific Binding” value (NK2 (h))?
A: 66%

Q: And the inhibition at 10 µM (NK2 (h); [3])?
A: 66%

Q: And the remaining activity at 10 µM (NK2 (h); [4])?
A: 34.5%

Q: And the remaining activity at 10 µM (NK2 (h); [5])?
A: 33.7%

Q: What about the remaining activity at 10 µM (NK2 (h); [6]) of the same molecule?
A: 34.1%

Q: What about the inhibition at 10 µM (5-HT7 (h); [3]) of the same molecule?
A: 2%

Q: What about the remaining activity at 10 µM (5-HT7 (h); [4]) of the same molecule?
A: 96.6%

Q: And the remaining activity at 10 µM (5-HT7 (h); [5])?
A: 99.7%

Q: And the remaining activity at 10 µM (5-HT7 (h); [6])?
A: 98.2%

Q: And the inhibition at 10 µM (dopamine transporter (h); [3])?
A: -15%

Q: And the remaining activity at 10 µM (dopamine transporter (h); [4])?
A: 124%

Q: And the remaining activity at 10 µM (dopamine transporter (h); [5])?
A: 106%

Q: What about the remaining activity at 10 µM (dopamine transporter (h); [6]) of the same molecule?
A: 115%

Q: And the IC50 (NTR1)?
A: 2.9 nM

Q: What about the “stability in mouse plasma” value [2] of the same molecule?
A: highly stable

Q: What about the “% remaining after 24 h incubation, Mouse plasma” value ([2]; 10 μM, 37° C., 24 h) of the same molecule?
A: >80%

Q: What about the inhibition at 10 µM (CB1 (h); [3]) of the same molecule?
A: 11%

Q: And the remaining activity at 10 µM (CB1 (h); [4])?
A: 96%

Q: And the remaining activity at 10 µM (CB1 (h); [5])?
A: 82.5%

Q: What about the remaining activity at 10 µM (CB1 (h); [6]) of the same molecule?
A: 89.3%

Q: What about the inhibition at 10 µM (A3 (h); [3]) of the same molecule?
A: -41%

Q: What about the remaining activity at 10 µM (A3 (h); [4]) of the same molecule?
A: 129%

Q: What about the remaining activity at 10 µM (A3 (h); [5]) of the same molecule?
A: 154%

Q: What about the remaining activity at 10 µM (A3 (h); [6]) of the same molecule?
A: 141%

Q: And the inhibition at 10 µM (Y1 (h); [3])?
A: -34%

Q: And the remaining activity at 10 µM (Y1 (h); [4])?
A: 128%

Q: And the remaining activity at 10 µM (Y1 (h); [5])?
A: 141%

Q: And the remaining activity at 10 µM (Y1 (h); [6])?
A: 134%

Q: And the inhibition at 10 µM (5-HT6 (h); [3])?
A: -6%

Q: And the remaining activity at 10 µM (5-HT6 (h); [4])?
A: 106%

Q: And the remaining activity at 10 µM (5-HT6 (h); [5])?
A: 105%

Q: What about the remaining activity at 10 µM (5-HT6 (h); [6]) of the same molecule?
A: 106%

Reference: US10799605B2 (3B PHARMACEUTICALS GMBH, priority 2014, dated 2020)
